# Assay results: patent US20100035862A1, “NOVEL AZA-CYCLIC INDOLE-2-CARBOXAMIDES AND METHODS OF USE THEREOF” (ABBOTT LABORATORIES, priority 2008, published 2010)
# Molecular target: T1, human α4β2 (Homo sapiens, UniProt P17787+P43681)
# T1 construct: expressed in transfected cells
# Assay: Calcium flux assay (FLIPR) in HEK 293 cells expressing NNR subtype; potentiation of submaximal agonist response
# Type: cell-based
# Settings: α4β2 PAM; response to submaximal agonist (EC20-30%) such as nicotine
# Excerpt: One manner to characterize α4β2 PAM activity is by characterization in clonal cell lines (for example, human embryonic kidney 293 cells) expressing the human neuronal nicotinic acetylcholine receptor subtype α4β2, particularly by use of Fluorescent Image Plate Reader technology. Effects on calcium flux or membrane potential changes can be assessed. Such assays have been reported and further details for carrying out, the assays can be obtained in International Publication No. WO 2006/114400. Another method to identify and characterize allosteric modulator activity is by expressing the α4β2 subunits in Xenopus oocytes, and by measuring electrophysiological effects on ligand-evoked current responses as previously described in Curtis, L., et al., Molecular Pharmacology, 61: 127-135, 2002.
# To determine the effectiveness of representative compounds of this invention as ligands for α4β2 PAM activity, the compounds of the invention can be evaluated according to the Calcium Flux Assay described below.
# Calcium Flux Assays Using Cells Expressing NNR Subtypes
# Human embryonic kidney (HEK) 293 cells stably expressing human α4β2 or (3β4 combinations are grown to confluency in 162 cm^2 tissue culture flasks in DMEM media supplemented with 10% FBS and 25 μg/mL zeocin and 200 μg/mL hygromycin B. Cells expressing rat or ferret subunits may also be used. For assessing α3* or α7* selectivity, IMR-32 cells may also be used. IMR-32 neuroblastoma cells (ATCC) are grown to confluency in 162 cm^2 tissue culture flasks in minimum essential media supplemented with 10% FBS and 1 mM sodium pyruvate, 1% non-essential amino acids and 1% antibiotic-antimycotic. For the calcium flux assay, c cells are then dissociated using cell dissociation buffer and 100-150 μL per well of 3.5×10^5 cells/mL cell suspension (˜50,000-100,000 cells/well) was plated into 96-well black plates (poly-D-lysine precoated) with clear bottom and maintained for 24-48 hours in a tissue culture incubator at 37° C. under an atmosphere of 5% CO2: 95% air. Other clonal cell lines or primary cell cultures that express endogenous α4* nicotinic receptors may also be used in this assay. Calcium flux was measured using calcium-3 assay kit (Molecular Devices, Sunnyvale, Calif.) or fluo-4 (Invitrogen). A stock solution of the dye was prepared by dissolving each vial supplied by the vendor in Hank's balanced-salt solution buffer (HBSS) or 150 mM NMDG, 20 mM calcium chloride containing 10 mM HEPES. The stock-solution was diluted 1:20 using a the same buffer before use. The growth media was removed from the cells. The cells were loaded with 100 μL of the dye per well and incubated at room temperature for up to one hour for HEK 293 clonal stable cell lines or 30 minutes-45 minutes at 37° C. for IMR-32 cells. Fluorescence measurements were read simultaneously from all the wells by a Fluorometic Imaging Plate Reader (FLIPR) at an excitation wavelength of 480 nm and an emission wavelength of 520 nm. Baseline fluorescence was measured for the first 6 seconds at which 3× concentrations of modulator/test compounds were added to the cell plate at 50 μL and incubated for five minutes. The fluorescence intensity was captured every second for the first 1 minute followed by every 5 seconds for an additional 4 minutes. This procedure was followed by 50 μL of 4× concentration of agonist and readings were taken for a period of 3-5 minutes as described above.
# The ability of test compounds to positively modulate the response (i.e., increase the response) induced by a submaximal concentration of agonist (EC20-30%) such as nicotine is measured. Potentiation is measured based on peak fluorescence responses. by screening compounds at fixed concentrations or in a concentration-response manner to derive, EC50 values. The concentration dependence of changes in fluorescence responses is fitted by nonlinear regression analysis (GraphPad Prism, San Diego, Calif.) to obtain EC50 values. […]
# T1 sequence (P43681 29-627 limits assumed): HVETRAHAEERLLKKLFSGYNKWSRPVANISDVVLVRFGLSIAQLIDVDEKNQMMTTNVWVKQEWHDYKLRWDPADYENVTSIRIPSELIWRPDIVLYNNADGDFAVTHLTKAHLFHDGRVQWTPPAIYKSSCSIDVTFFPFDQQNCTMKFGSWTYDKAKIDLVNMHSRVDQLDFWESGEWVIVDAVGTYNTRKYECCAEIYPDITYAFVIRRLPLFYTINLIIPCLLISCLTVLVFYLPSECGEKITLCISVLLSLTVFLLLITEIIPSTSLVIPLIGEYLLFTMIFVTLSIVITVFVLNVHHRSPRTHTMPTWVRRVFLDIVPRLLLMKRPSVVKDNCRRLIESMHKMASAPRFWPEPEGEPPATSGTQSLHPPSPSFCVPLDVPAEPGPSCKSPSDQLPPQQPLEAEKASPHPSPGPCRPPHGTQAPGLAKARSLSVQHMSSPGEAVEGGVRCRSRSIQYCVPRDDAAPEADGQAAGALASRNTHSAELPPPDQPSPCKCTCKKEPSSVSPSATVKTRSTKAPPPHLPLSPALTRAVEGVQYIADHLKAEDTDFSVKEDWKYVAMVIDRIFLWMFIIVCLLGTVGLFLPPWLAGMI
# T1 sequence (P17787 26-502): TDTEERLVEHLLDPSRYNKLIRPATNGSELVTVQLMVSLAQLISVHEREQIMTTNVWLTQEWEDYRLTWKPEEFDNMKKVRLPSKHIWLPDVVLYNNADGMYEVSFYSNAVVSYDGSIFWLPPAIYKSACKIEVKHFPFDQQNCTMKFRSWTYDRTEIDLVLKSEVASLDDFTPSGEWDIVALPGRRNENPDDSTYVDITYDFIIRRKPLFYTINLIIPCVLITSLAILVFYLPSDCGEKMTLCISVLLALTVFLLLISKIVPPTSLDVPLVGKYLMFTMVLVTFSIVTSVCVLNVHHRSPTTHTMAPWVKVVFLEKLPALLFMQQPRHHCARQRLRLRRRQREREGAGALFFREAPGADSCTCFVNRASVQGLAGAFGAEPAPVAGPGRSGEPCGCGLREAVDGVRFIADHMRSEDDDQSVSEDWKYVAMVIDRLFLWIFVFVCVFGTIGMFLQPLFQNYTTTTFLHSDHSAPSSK
row,Structure (SMILES),Activity (allostertc effects—potentiation of fluorescence responses)
1,CN1CC[C@@H](NC(=O)c2cc3cc(Cl)ccc3[nH]2)C1 [Example 31],a (“a” denotes active compounds (>100%))
2,"O=C(N[C@@H]1CCCNC1)c1cc2c(Cl)cc(Cl)cc2[nH]1 [Example 114, (R)-4,6-dichloro-N-(piperidin-3-yl)-1H-indole-2-carboxamide]",a (“a” denotes active compounds (>100%))
3,"CC(C)(C)c1ccc2cc(C(=O)N[C@@H]3CCNC3)[nH]c2c1 [Example 10, (R)-6-tert-butyl-N-(pyrrolidin-3-yl)-1H-indole-2-carboxamide]",a (“a” denotes active compounds (>100%))
4,"Cc1ccc(C)c2c(C)c(C(=O)N[C@@H]3CCCNC3)[nH]c12 [Example 108, (R)-3,4,7-trimethyl-N-(piperidin-3-yl)-1H-indole-2-carboxamide]",a (“a” denotes active compounds (>100%))
5,"CN1CC[C@H](NC(=O)c2cc3c(Cl)cc(Cl)cc3[nH]2)C1 [Example 40, (S)-4,6-dichloro-N-(1-methylpyrrolidin-3-yl)-1H-indole-2-carboxamide]",a (“a” denotes active compounds (>100%))
6,"O=C(N[C@@H]1CCNC1)c1cc2ccc(-c3ccccc3)cc2[nH]1 [Example 13, (R)-6-phenyl-N-(pyrrolidin-3-yl)-1H-indole-2-carboxamide]",a (“a” denotes active compounds (>100%))
7,"Cc1ccc(C)c2c(C)c(C(=O)N[C@@H]3CCNC3)[nH]c12 [Example 1, (R)-3,4,7-trimethyl-N-(pyrrolidin-3-yl)-1H-indole-2-carboxamide]",a (“a” denotes active compounds (>100%))
8,"Cc1ccc(C)c2c(C)c(C(=O)N[C@@H]3CCCN(C)C3)[nH]c12.Cc1ccc(S(=O)(=O)O)cc1 [Example 109, (R)-3,4,7-trimethyl-N-(1-methylpiperidin-3-yl)-1H-indole-2-carboxamide tosylate]",a (“a” denotes active compounds (>100%))
